Each structure is given as a SMILES string. Like-named read-outs stand apart in the source and are kept apart here.

Results on one compound are retold here after paper PMC12699035, “Exploring market-approved azoles as potential breast cancer therapeutics targeting the VEGFR-2 biotarget” (Scientific Reports, 2025).

One assay deals with T1, VEGFR-2 (Homo sapiens, UniProt P35968).
T1 construct: purchased BPS Bioscience 40325
The assay is described as follows: VEGFR-2 kinase inhibition, luminescent VEGFR2 (KDR) kinase assay kit (BPS Bioscience # 40325). The format is biochemical. As to the method:
Functionally, this pathway operates in autocrine and intracrine modes to promote cell proliferation, survival, and resistance to apoptosis through downstream effectors such as PI3K/AKT and p38 MAPK.
SIT, FLU and TNZ were tested using the five dose sigmoidal curves to determine the IC50 values. […] At the end of these experiment, anti-tumor potentiality was recorded using tumor weight (mg), tumor volume (mm^3), and the tumor inhibition ratio (TIR%). Hematological parameters of Hemoglobin (Hb, g/dL), RBC’s count (10^6/μL), and WBC’s count (10^3/μL) were investigated, along with histopathological and immunohistochemical staining of the VEGR2 protein.
Compounds Itraconazole. […] [12].

For the next assay, the system named is MCF-7 cells. The assay is described as follows: Cytotoxicity against MCF-7 cells, MTT assay (single dose and five doses).
For a further assay, the system named is VEGF. In words: Immunohistochemical staining of VEGF in SEC tumor sections. The format is in vivo, mice. The following applies: IHC of SEC tumor. An excerpt: VEGF has been considered a biomarker for VEGFR-2 bioactivity, as it binds to and activates this kinase receptor, playing a crucial role in angiogenesis. High VEGF levels are often associated with increased VEGFR-2 expression and activity, making VEGF a marker for VEGFR-2's function and tumor growth. […] The staining intensity is strong (+ 3), with dark brown cytoplasmic staining in most tumor cells. The immunoreactive score (IRS), calculated by multiplying the staining intensity score and the percentage of positive cells, is 9–12, indicating a high level of VEGF expression. This intense VEGF expression correlates with the presence of numerous irregular and dilated blood vessels in the tumor microenvironment.
The paraffin-infiltrated tissue was sliced into thin sections (4-6 μm) using a microtome and floated in a water bath. The sections were then mounted onto charged slides and left to dry overnight. The use of charged slides ensures the sections adhere properly to the slide. To carry out antibody staining, the paraffin wax was removed from the sample, and the tissue was rehydrated. The paraffin was eliminated by placing the tissue sections in three containers of xylene for 5 minutes each. Rehydration began by immersing the sections in two containers of 100% ethanol for 10 minutes each, followed by two containers of 95% ethanol for 10 minutes each. Finally, to complete the rehydration, the sections were washed twice in deionized water for 5 minutes each.
For antigen retrieval, the slides are heated in 10 mM Tris/1 mM EDTA, pH 9.0, kept at a sub-boiling temperature for 18 minutes, and then allowed to cool at room temperature for 30 minutes. For chromogenic staining detection, the sections are rinsed in deionized water three times for 5 minutes each, and then the endogenous peroxidase activity in the tissue sections is quenched to prevent high background staining by incubating the sections in 3% hydrogen peroxide for 10 minutes. Afterward, the sections are washed twice in deionized water for 5 minutes each, followed by a single wash in wash buffer for 5 minutes. A hydrophobic pen is used to carefully draw a large circle around the sample, ensuring it doesn’t touch the sample, creating a hydrophobic boundary to achieve optimal antibody staining quality. To prevent non-specific antibodies from binding to the tissue, each section is blocked with 100–400 µl of blocking solution for 1 hour at room temperature in a humidified chamber. The blocking solution was discarded, and 100–400 µl of diluted primary antibody was applied. […]
The slides were incubated overnight at 4°C in a humidified chamber. […] Then, 100–400 µl of Signal Stain DAB was applied to each section and monitored closely for 1–10 minutes until an acceptable staining intensity was achieved. […]

T1 sequence (P35968 20-1356): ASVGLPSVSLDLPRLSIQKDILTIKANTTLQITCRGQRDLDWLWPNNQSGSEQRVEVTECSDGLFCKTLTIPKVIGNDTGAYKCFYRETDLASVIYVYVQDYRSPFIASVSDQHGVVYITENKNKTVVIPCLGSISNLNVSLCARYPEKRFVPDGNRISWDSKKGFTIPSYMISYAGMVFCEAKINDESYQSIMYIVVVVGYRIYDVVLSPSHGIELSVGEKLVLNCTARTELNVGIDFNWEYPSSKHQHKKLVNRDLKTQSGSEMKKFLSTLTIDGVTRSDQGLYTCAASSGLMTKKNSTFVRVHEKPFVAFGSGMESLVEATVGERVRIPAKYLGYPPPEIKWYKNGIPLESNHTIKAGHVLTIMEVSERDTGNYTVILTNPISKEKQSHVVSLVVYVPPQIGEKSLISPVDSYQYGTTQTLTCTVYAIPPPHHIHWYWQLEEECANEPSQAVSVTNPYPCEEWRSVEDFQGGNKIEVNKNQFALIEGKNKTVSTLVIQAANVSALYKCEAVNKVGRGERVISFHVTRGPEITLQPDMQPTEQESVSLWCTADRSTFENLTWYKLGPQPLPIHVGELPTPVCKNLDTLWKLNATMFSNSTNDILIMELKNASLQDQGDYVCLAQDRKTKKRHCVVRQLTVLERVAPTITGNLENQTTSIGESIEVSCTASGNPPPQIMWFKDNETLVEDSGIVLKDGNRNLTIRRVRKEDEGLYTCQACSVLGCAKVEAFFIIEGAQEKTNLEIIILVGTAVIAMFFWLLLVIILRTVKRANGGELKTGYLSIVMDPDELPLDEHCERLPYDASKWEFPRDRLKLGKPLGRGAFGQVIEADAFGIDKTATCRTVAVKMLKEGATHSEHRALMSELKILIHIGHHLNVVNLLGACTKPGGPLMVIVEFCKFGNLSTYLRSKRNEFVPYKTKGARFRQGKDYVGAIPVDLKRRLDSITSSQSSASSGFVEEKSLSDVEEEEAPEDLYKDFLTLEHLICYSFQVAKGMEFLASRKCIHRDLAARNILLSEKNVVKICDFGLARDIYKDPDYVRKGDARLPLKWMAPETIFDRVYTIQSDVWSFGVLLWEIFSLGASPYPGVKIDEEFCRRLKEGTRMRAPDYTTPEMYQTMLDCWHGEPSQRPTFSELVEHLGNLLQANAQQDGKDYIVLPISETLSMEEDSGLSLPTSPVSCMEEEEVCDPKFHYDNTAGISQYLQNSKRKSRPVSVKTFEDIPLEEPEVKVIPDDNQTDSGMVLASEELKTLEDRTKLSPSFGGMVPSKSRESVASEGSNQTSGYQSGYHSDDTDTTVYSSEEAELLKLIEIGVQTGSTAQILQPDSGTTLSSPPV

As to `CCC(C)n1ncn(-c2ccc(N3CCN(c4ccc(OCC5COC(Cn6cncn6)(c6ccc(Cl)cc6Cl)O5)cc4)CC3)cc2)c1=O` (stereo not shown) [Itraconazole, itraconazole], on VEGFR-2 (dose-response curve fit, unit not given), the “VEGFR-2 enzyme inhibition LogIC50 (Fig. 3)” value was determined as 1.515. Besides, the IC50 on VEGFR-2 (enzyme inhibition, dose-response, non-linear regression, read-out: VEGFR-2 inhibition IC50) was found to be 32.7 µM; with MCF-7 cells (Homo sapiens, MCF7, read-out: MCF-7 IC50 ± SD, MCF-7, five dose concentrations, MTT, n = 3), 25.7 ± 0.9 µM. Besides, the viability (usually a per cent measure of how many cells are alive, often set against a control) at 100 µg/mL with MCF-7 cells (Homo sapiens, MCF7, read-out: Average viability%) was 69.5%; in the assay on MCF-7 cells (Homo sapiens, MCF7, read-out: Viability (%) 1), 70.8%; in the assay with MCF-7 cells (Homo sapiens, MCF7, read-out: Viability (%) 2), 70.1%; in the assay with MCF-7 cells (Homo sapiens, MCF7, read-out: Viability (%) 3) it was 67.7%. Also, the “Average OD” value with MCF-7 cells (MCF-7, single dose 100 μg/mL, MTT optical density, average of triplicates) was found to be 2.24. In the assay with MCF-7 cells (MCF-7, single dose 100 μg/mL, MTT optical density, replicate 1), this compound came in with an OD1 of 2.28. In the assay on MCF-7 cells (MCF-7, single dose 100 μg/mL, MTT optical density, replicate 2), this compound registered an OD2 of 2.26. This compound registered an OD3 in the assay with MCF-7 cells (MCF-7, single dose 100 μg/mL, MTT optical density, replicate 3) of 2.18. The “immunoreactive score (IRS)” value with VEGF (scale 0-12, SEC control 9–12) is 4–8. The “percentage of VEGF-positive tumor cells” value in the assay with VEGF (SEC control 80–90%) was 40–60%.
